This note sets out measurements from patent publication US20210348171A1, “PHARMACOPROTEOMICS PLATFORM IDENTIFYING KINOME FEATURES REGULATING DRUG RESPONSE IN CANCER” (University of Washington, priority 2020, published 2021).

Holding throughout (type): cell-based, Human
In one assay the test system is SNU449 cells. The assay can be described thus: Inhibitor co-treatment growth inhibition (WZ4003 with AZD7762 or dinaciclib). The conditions noted are these: for dose dependence of the cotreatment effect: AZD7762 plus WZ4003; for decrease of EC50 on cotreatment with WZ4003: cotreatment with NUAK1/2 inhibitor WZ4003, 72 h, n=4. From the text: To identify combinatorial treatment strategies targeting mesenchymal and drug resistant HCC cells, the next step was to analyze drug sensitivity pathways that become activated upon AXL and NUAK1/2 inhibition and EMT reversal. […] It was also observed increased cell cycle activity among epithelial lines in the 17 HCC line panel (FIG. 9B), that was accompanied by elevated activity of kinases promoting DDR signaling and cell survival under conditions of replication stress. For instance, activation of CHEK1 and 2 along with increased phosphorylation of ATR, CHEK1/2 and WEE1 substrates were observed (FIGS. 4A and 9C). Similarly, AXL RNAi in FOCUS cells activated the DDR kinases CHEK1 and WEE1, increasing phosphorylation of their substrates CDK11B and CDK2 (FIGS. 4B and 9D). […] It was reasoned, therefore, that combinatorial inhibition of AXL or NUAK1/2, as well as cell cycle checkpoint kinases could efficiently kill mesenchymal HCC cells (FIG. 4D). To test this strategy, the mesenchymal and drug resistant SNU449 line was cotreated with the selective NUAK1/2 inhibitor WZ4003 (Banerjee, S., et al. (2014). Characterization of WZ4003 and HTH-01-015 as selective inhibitors of the LKB1-tumour-suppressor-activated NUAK kinases. Biochem J 457, 215-225, incorporated herein by reference in its entirety) and the CHEK1/2 inhibitor AZD7762. Additionally, the CDK inhibitor dinaciclib was used to test if elevated, EMT state-dependent, cell cycle activity translates into increased efficacy of such drugs. […] These encouraging results led to establishment of SNU449 NUAK1 or NUAK2 RNAi cells (FIG. 9E). Gratifyingly, treating SNU449 NUAK RNAi cells and WT controls with varying doses of AZD7762 and dinaciclib recapitulated the drug co-treatment results (˜3- to 4-fold decrease in EC50s, FIG. 4H). To consolidate these findings, the FOCUS NUAK and AXL RNAi cell lines were tested against AZD7762 and dinaciclib. As in SNU449 cells, NUAK1/2 RNAi FOCUS cells were sensitized to kinase inhibition up to ˜5-fold (FIG. 4I).
1800 cells/well were seeded onto white flat bottom half area 96-well plates (Greiner Bio-One, Kremsmuenster, AT) in 50 μl of growth medium and allowed to attach in an incubator for 24 h. Then the drugs in DMSO and/or DMSO vehicle controls as 11× solutions in growth medium were added to a total volume of 55 μl and 0.1% DMSO final. The cells were grown in an incubator for another 72 h. Then, 55 μl of CellTiter-Glo 2.0 (Promega, Madison, Wis.) reagent/well were added according to the manufacturer's instructions and luminescence was quantified with a SpectraMax 190 plate reader (Molecular Devices, San Jose, Calif.). The CHEK1/2 inhibitor AZD7762 (Selleckchem, Houston, Tex.) and the NUAK1/2 inhibitor WZ4003 (Tocris Bioscience, Minneapolis, Minn.) were applied at 8 different concentrations between 10 μM and 4.6 nM (3-fold dilution steps) and Dinaciclib (Selleckchem) was applied at 8 different concentrations between 1 μM and 0.5 nM (3-fold dilution steps). Experiments were performed in four biological replicates. Growth inhibition curves were fitted using the GraphPad Prism software package (V5.0a) with a least-squares nonlinear regression model for curve fitting (One site-Fit log IC50 function).

Assay [1] has as its system mesenchymal HCC cells with CAMK1D shRNAi knockdown. The assay can be described thus: Drug sensitization in CAMK1D knockdown lines (Cell Titer Glo 2.0). The note with it: RNAi lines vs scramble control, 72 hours. From the text:
The approach to validate the role AAK1 is represented schematically in FIG. 10A. As illustrated, the general workflow pipeline is to test the biological function of kinases and their interaction partners function in EMT and cancer therapy resistance. (1) Kinases and their interaction partners are depleted from cell lines using either small hairpin RNAs (shRNAs) or CRISPR/Cas9 knockout. (2) Effects of RNAi knockdown (KD) or CRISPR knockout (KO) are quantified on cellular signaling pathways using unbiased MS-based kinome-centric and global proteome and phosphoproteome profiling. (3) KD/KO effects on EMT state are studied by quantifying 12 well-known EMT and stemness markers such as CDH1, VIM, SNAI2 and TWIST1 using qPCR and western blotting. (4) KD/KO effects are confirmed/determined on cancer therapy resistance by treating KD/KO cell lines with 15 clinical and pre-clinical HCC drugs, quantifying cell viability using the Promega Cell Titer Glo 2.0 assay. […] (5) KD/KO effects are measured on cell migration and invasion by conducting trans-well migration and wound scratch assays. […]
Further analyses of CAMK1D were conducted to further investigate its role in EMT and potential therapeutic target. […] Phosphoproteins were quantified using global MS-based phosphoproteomics according to our previously published protocol. […]
In general terms: ATP-based viability assays read luminescence as a measure of living cells.

Assay [2] deals with FOCUS, SKHep1, SNU761 RNAi lines. The assay can be described thus: Drug synergy in AAK1, RALBP1, REPS1, REPS2 knockdown lines (Cell Titer Glo 2.0). The note with it: RNAi lines vs scramble control, 72 hours.
From the text: (1) Kinases and their interaction partners are depleted from cell lines using either small hairpin RNAs (shRNAs) or CRISPR/Cas9 knockout. […] This assay aims to discover drug synergies that may be exploited to develop novel combination therapies.
The next step was to assess the ability of an AAK1 knockdown to sensitize the cells to extant KI targeting therapeutics.

Regarding `NC(=O)Nc1cc(-c2cccc(F)c2)sc1C(=O)N[C@H]1CCCNC1` [AZD7762], in the assay with SNU449 cells, the “dose dependence of the cotreatment effect” value is reported as “dose-dependent” and the “decrease of EC50 on cotreatment with WZ4003” value is given as about 3 fold. Further, in assay [1], the “effect of CAMK1D knockdown on drug treatment” value is listed as “sensitizes”. In addition, in assay [2], the “effect of knockdown of AAK1 and interaction partners on drug treatment” value is on record as “sensitizes”.

Turning to `O=c1[nH]c2ccc(Cl)cc2c(N[C@@H]2CN3CCC2CC3)c1-c1nc2ccccc2[nH]1` [CHIR-124], the “effect of CAMK1D knockdown on drug treatment” value in assay [1] is recorded as “sensitizes”. Further, in assay [2], the “effect of knockdown of AAK1 and interaction partners on drug treatment” value is “sensitizes”.

Turning to `CCC(=O)Nc1cccc(Oc2nc(Nc3ccc(N4CCN(C)CC4)cc3OC)ncc2Cl)c1` [WZ4003], the “significance of the cotreatment effect at low WZ4003” value in the assay on SNU449 cells (1 μM of WZ4003 with AZD7762) is “still significant”. Besides, the “dose dependence of the cotreatment effect” value in the assay on SNU449 cells is “dose-dependent”.

Take `CCc1cnn2c(NCc3ccc[n+]([O-])c3)cc(N3CCCC[C@H]3CCO)nc12` [dinaciclib, Dinaciclib]: the “decrease of EC50 on cotreatment with WZ4003” value in the assay on SNU449 cells is about 2 fold.
